Test results taken from patent US10968184B2, “Pyrimidine prodrugs for the treatment of viral infections and further diseases” (Janssen Sciences Ireland Unlimited Company, priority 2016, dated 2021).

Key:
in vitro [1] = conditions: human, hepatocytes
in vitro [2] = conditions: rat, liver microsomes
in vitro [3] = conditions: human, plasma
in vitro [4] = conditions: human, liver microsomes
in vitro [5] = conditions: rat, plasma
in vitro [6] = conditions: rat, hepatocytes
[7] = system: P-glycoprotein (human MDR1); assay: in vitro; conditions: dog, MDCK-MDR1
in vitro [8] = conditions: simulated gi fluid
[9] = Pharmacokinetics in rat after oral administration; type: in vivo; conditions: SD rats, aqueous solution, 5 mg/kg eq dose, prodrug in plasma; for AUC(0-t): read-out: AUC(0-last) prodrug
Method: Pharmacokinetics in rat. Prodrugs were administered orally to SD rats using aqueous solution at 5 mg/kg eq dose. Plasma samples were collected at different time points and the concentration of parent and prodrug was analyzed using LC-MS/MS. PK parameters were calculated using Phoenix WinNonlin 6.3. Cmax (ng/mL) and AUC(0-last) (ng·h/mL) were determined for both prodrug and parent.

in vitro [10] = conditions: simulated gi fluid; remark: listed apart in the source

For `CCCC[C@H](CO)Nc1nc(N(C)C)ncc1OC` [Compound 5, (R)-2-((2-(dimethylamino)-5-methoxypyrimidin-4-yl)amino)hexan-1-ol], the hepatocyte CLint at 1 μM (in vitro [1]) was 80 µL/min/1e6 cells, the microsomal CLint at 1 μM (in vitro [2]) was 141 µL/min/mg and the half-life at 1 μM (in vitro [3]) was > 30 h. The microsomal CLint at 1 μM (in vitro [4]) was 14 µL/min/mg, the half-life at 1 μM (in vitro [5]) was > 30 h and the hepatocyte CLint at 1 μM (in vitro [6]) was 280 µL/min/1e6 cells. The Papp A→B [7] was 20 ×10⁻⁶ cm/s, the efflux ratio [7] was 3.2 and the half-life (in vitro [8]) was > 6 h. It also gave a Cmax [9] of 88 ng/mL, an AUC(0-t) [9] of 144 ng·h/mL and a melting point of 86.1 °C. For the same compound, the half-life (in vitro [10]) was > 6 h.
In the case of `CCCC[C@H](CO)Nc1nc(NC)ncc1OC` [Compound 6], the hepatocyte CLint at 1 μM (in vitro [1]) is reported as 33 µL/min/1e6 cells, the microsomal CLint at 1 μM (in vitro [2]) is reported as 25 µL/min/mg and the half-life at 1 μM (in vitro [3]) is reported as > 30 h. The microsomal CLint at 1 μM (in vitro [4]) was 18 µL/min/mg, the half-life at 1 μM (in vitro [5]) was > 30 h and the hepatocyte CLint at 1 μM (in vitro [6]) was 120 µL/min/1e6 cells. The Papp A→B [7] was 6.8 ×10⁻⁶ cm/s, the efflux ratio [7] was 10 and the half-life (in vitro [8]) was > 6 h. For the same compound, the Cmax [9] was 129 ng/mL, the AUC(0-t) [9] was 206 ng·h/mL and the half-life (in vitro [10]) was > 6 h.
For `CCCC[C@H](CO)Nc1nc(NC2CCCO2)ncc1OC` (stereo partly drawn) [Compound 9, (2R)-2-((5-methoxy-2-((tetrahydrofuran-2-yl)amino)pyrimidin-4-yl)-amino)hexan-1-ol], the microsomal CLint at 1 μM (in vitro [2]) was 27 µL/min/mg, the half-life at 1 μM (in vitro [3]) was < 0.4 h and the microsomal CLint at 1 μM (in vitro [4]) was 115 µL/min/mg. The half-life at 1 μM (in vitro [5]) was < 0.4 h.
For `CCCC[C@H](CO)Nc1nc(NC2CCCCO2)ncc1OC` (stereo partly drawn) [Compound 10, (2R)-2-((5-methoxy-2-((tetrahydro-2H-pyran-2-yl)amino)pyrimidin-4-yl)-amino)hexan-1-ol], the microsomal CLint at 1 μM (in vitro [2]) was > 347 µL/min/mg, the half-life at 1 μM (in vitro [3]) was 1.4 h and the microsomal CLint at 1 μM (in vitro [4]) was 88 to 90 µL/min/mg. For the same compound, the half-life at 1 μM (in vitro [5]) was 1.4 h, the Papp A→B [7] was 1.8 ×10⁻⁶ cm/s and the efflux ratio [7] was 33.
